Conditions in one data set: not given
With `Brc1ccc2c(c1)Oc1ccc(Br)cc1O2`, the log10 vapour pressure (mmHg) is -5.95 and the melting point came to 193 °C. `CS(C)(=O)=O` yielded a boiling point of 238 °C and a melting point of 109 °C. `CC(C)[C@@H]1CC[C@@H](C)[C@H](O)C1`: the boiling point came out at 218 °C. Compound `CC1(C)[C@H](C(=O)O[C@H](C#N)c2cccc(Oc3ccccc3)c2)[C@@H]1C(Br)C(Br)(Br)Br` (stereo partly specified) registered a log10 Koc (L/kg) of 5, a log10 vapour pressure (mmHg) of -10.4 and a melting point of 143 °C. Compound `CCC1(C)CCCC1` registered a boiling point of 122 °C and a melting point of -144 °C. With `CCC(C#N)CC`, the boiling point came out at 146 °C. `C1CCSSC1` came in with a melting point of 32.5 °C. `CCc1ccc(C(C)=O)cc1` gave a log10 vapour pressure (mmHg) of -0.0389 and a melting point of -20.6 °C. `CCOC(=O)CO`: the boiling point was determined as 160 °C. Consider `O=C(O)C=Cc1ccc(Br)cc1`, for which the melting point came out at 263 °C. Take `CCC1C=CCCC1` (stereo unspecified): the boiling point was 134 °C. As to `O=c1cc(-c2ccccc2)oc2cc(O)ccc12`, the melting point worked out at 246 °C. As for `CCCC(CCC)C(=O)O`, the boiling point turned out to be 222 °C and the ready biodegradability result is “readily biodegradable”.

Take `CNc1cccc(C)c1`: the boiling point stood at 206 °C and the ready biodegradability entry is listed as “not readily biodegradable”.

The compound `CCc1cccc(O)c1` returned a boiling point of 218 °C, a log10 Henry constant (atm·m³/mol) of -6.2, a log10 vapour pressure (mmHg) of -1.3 and a melting point of -4 °C. In addition, the ready biodegradability entry is recorded as “readily biodegradable”. As to `CC[C@@H](N)CO`, the boiling point worked out at 178 °C and the melting point is -2 °C. Regarding `Cc1ccc(C)c([N+](=O)[O-])c1`, the boiling point was determined as 240 °C and the melting point is -25 °C. `CC(C)=CCC/C(C)=C/C=C/C(C)=C/C=C/C(C)=C/C=C/C=C(C)/C=C/C=C(C)/C=C/C1C(C)=CCCC1(C)C` (stereo unspecified) gave a melting point of 140 °C. Turning to `CCCCC(C=O)CC` (stereo unspecified), the boiling point was found to be 163 °C and the log10 vapour pressure (mmHg) worked out at 0.255.

Turning to `COC1=C(O)C(=O)C(C)=C(O)C1=O`, the melting point was 202 °C. The same measure, in the same setting: with `Sc1ncc[nH]1` the figure was 230 °C. For `CC1CC(C)(C)CC1=O` (stereo unspecified), the boiling point turned out to be 160 °C and the melting point was -25.6 °C. Compound `CCCOC(C)=O` gave a boiling point of 102 °C, a log10 Henry constant (atm·m³/mol) of -3.66, a log10 Koa of 3.17 and a log10 vapour pressure (mmHg) of 1.56. For the same compound, the melting point was -93 °C and the ready biodegradability entry was “readily biodegradable”. `CCCCCCC(C)N` (stereo unspecified) gave a boiling point of 165 °C. Regarding `Clc1cc2c(c(Cl)c1Cl)Oc1cc(Cl)c(Cl)c(Cl)c1O2`, the log10 Koa came to 11, the log10 vapour pressure (mmHg) was -10.4 and the melting point came to 285 °C. The compound `CCCCCCCOC(=O)CCCC` returned a boiling point of 245 °C and a melting point of -46.4 °C. `NC(=O)OCCCl` returned a melting point of 75.5 °C. `O=C(O)COCC(=O)O` came in with a melting point of 148 °C. For `CC(F)(F)C(F)(F)F`, the boiling point is -17.4 °C and the log10 vapour pressure (mmHg) was 3.54. The compound `NS(=O)(=O)c1cc2c(cc1C(F)(F)F)NCNS2(=O)=O` yielded a melting point of 270 °C.

With `C[C@]12CC[C@H](O)C[C@H]1CC[C@@H]1[C@@H]2CC[C@]2(C)[C@@H](C3=CC(=O)OC3)[C@@H](O)C[C@]12O`, the melting point was found to be 234 °C.

The compound `Brc1ccc2[nH]ccc2c1` yielded a melting point of 91 °C. Turning to `CNC(=O)/C=C(\C)OP(=O)(OC)OC`, the log10 Koc (L/kg) was 0, the log10 vapour pressure (mmHg) is -5.66 and the melting point came out at 55 °C. Compound `CCCC(=O)OC1CCCCC1` gave a boiling point of 213 °C. `Clc1cncc(Cl)c1` had a melting point of 66 °C.

`Cc1cccc(C)c1N(C(=O)CCl)C1CCOC1=O` (stereo unspecified) yielded a log10 vapour pressure (mmHg) of -6.82 and a melting point of 146 °C. In the case of `O=c1[nH]c2ccccc2n1CCCN1CCC(n2c(=O)[nH]c3cc(Cl)ccc32)CC1`, the melting point was 242 °C. For `Oc1ccc(Cl)c(O)c1`, the melting point amounted to 107 °C and the ready biodegradability entry is recorded as “not readily biodegradable”.

In turn, `CCC(CC)C(=O)Cl` came in with a boiling point of 140 °C. `NCCc1ccc(O)c(O)c1` returned a melting point of 128 °C. Regarding `CN(C)C(=O)Nc1cc(C(C)(C)C)on1`, the log10 Koc (L/kg) was found to be 2.47, the log10 vapour pressure (mmHg) is -6.42, the melting point came to 120 °C and the ready biodegradability entry is listed as “readily biodegradable”. Compound `COC(=O)[C@H]1[C@H]2C[C@@H]3c4[nH]c5cc(OC)ccc5c4CCN3C[C@H]2C[C@@H](OC(=O)c2cc(OC)c(OC)c(OC)c2)[C@@H]1OC` returned a melting point of 264 °C. `CC(=O)c1ccc(O)cc1C` registered a boiling point of 313 °C and a melting point of 128 °C. Compound `C#CC(C)(CC)OC(=O)c1ccccc1C(=O)O` (stereo unspecified) yielded a melting point of 97 °C. The same measure, in the same setting: the value for `CS(=O)(=O)c1ccc2c(c1)N(CCCN1CCC(C(N)=O)CC1)c1ccccc1S2` was 170 °C. `Cc1ccn(-c2ccccc2)n1`: the boiling point is 255 °C and the melting point was 37 °C. With `O=C(Nc1ccc(Cl)cc1)c1cc(Cl)cc(Cl)c1O`, the melting point worked out at 142 °C. `NS(=O)(=O)c1ccc([N+](=O)[O-])cc1` showed a melting point of 179 °C. Same read-out and setting: with `COc1ccc2c(=O)c(C)c(-c3ccccc3)oc2c1CN(C)C` the figure was 110 °C; with `C=CC=CC(=O)O`, 79 °C. With `FCCF`, the boiling point was found to be 30.7 °C and the log10 vapour pressure (mmHg) is 2.79.

In turn, `COC(=O)CCCCC(=O)O` had a melting point of 9 °C. In turn, `Cc1c(C)c(C)c(O)c(C)c1C` displayed a boiling point of 267 °C and a melting point of 128 °C. `CCC1(C)OCCO1` gave a boiling point of 116 °C.

Consider `O=CC(=O)O`, for which the ready biodegradability entry is on record as “readily biodegradable”.

In turn, `O=C(O)c1ccccc1C(c1ccc(O)cc1)c1ccc(O)cc1` returned a melting point of 230 °C. Consider `CC(F)(F)C(Cl)(Cl)Cl`, for which the boiling point came out at 73 °C.

Compound `O=C1OC(=O)[C@H]2[C@@H]1[C@H]1C=C[C@@H]2C1` registered a melting point of 164 °C. The same measure, in the same setting: with `CCCCCCCCCCOc1ccc(C(=O)O)cc1` the figure was 114 °C; with `O=C(O)C(c1ccccc1)c1ccccc1`, 147 °C. Take `ClCBr`: the boiling point worked out at 68 °C, the log10 vapour pressure (mmHg) was found to be 2.15, the melting point was -87.9 °C and the ready biodegradability entry is reported as “not readily biodegradable”. In turn, `CCCCOC(=O)c1ccccc1C(=O)O` had a melting point of 73.5 °C. Still for that read-out and setting: with `CC(=O)O[C@@H]1C[C@]2(O)[C@H](CC[C@]3(C)[C@@H](c4ccc(=O)oc4)CC[C@@]32O)[C@@]2(C)CC[C@H](O[C@@H]3O[C@H](CO)[C@@H](O)[C@H](O)[C@H]3O)C=C12` the figure was 169 °C.

In the case of `COc1ccccc1N(C)C`, the boiling point is 210 °C.

Consider `CCCCCCCCCCCCCCCCCCCCCCCCCCCCC`, for which the boiling point was 441 °C, the log10 biodegradation half-life (days) is 2, the log10 vapour pressure (mmHg) is -9.37 and the melting point was found to be 63.7 °C. Besides, the ready biodegradability entry is given as “readily biodegradable”. On to `CCC1CCC(=O)O1` (stereo unspecified), for which the boiling point came to 216 °C and the melting point is -18 °C. In turn, `CCC1CCC(=O)CC1` returned a boiling point of 193 °C. In the case of `O=C(O)C(F)(F)C(F)(F)C(F)(F)C(F)(F)C(F)(F)C(F)(F)C(F)(F)C(F)(F)C(F)(F)C(F)(F)C(F)(F)C(F)(F)C(F)(F)F`, the ready biodegradability entry is listed as “not readily biodegradable”. With `CCCCCOC(=O)CC`, the boiling point turned out to be 169 °C, the log10 vapour pressure (mmHg) amounted to 0.556 and the melting point was -73.1 °C. For `FC(F)CBr`, the boiling point turned out to be 57.3 °C and the melting point was -75 °C. `OCCCBr` returned a log10 vapour pressure (mmHg) of -1.

Still in this data set, the particulars now being: fish.
`CNc1cccc(C)c1` registered a log10 BCF of 0.86 and a log10 biotransformation half-life (days) of -0.79. As to `O=C(Nc1ccc2c(O)cc(S(=O)(=O)O)cc2c1)Nc1ccc2c(O)cc(S(=O)(=O)O)cc2c1`, the log10 BCF is 0.26. Turning to `Clc1cc2c(c(Cl)c1Cl)Oc1cc(Cl)c(Cl)c(Cl)c1O2`, the log10 BCF worked out at 3.93 and the log10 biotransformation half-life (days) stood at 1.21. `Brc1ccc(Oc2ccc(Br)c(Br)c2)cc1Br` returned a log10 BCF of 6.29.

`ClCBr`: the log10 BCF came out at 0.6 and the log10 biotransformation half-life (days) is -0.74.

For the origin of these results see the OPERA property sets (Mansouri et al. 2018).
